Laboratory results reported in patent US12065436B2, “Cardiac sarcomere inhibitors” (Cytokinetics, Inc., priority 2018, dated 2024).

Target: bovine cardiac myofibrils (full-length cardiac myosin ATPase in the native sarcomere) (Bos taurus (Bovine), UniProt Q9BE39)
Test: Skinned bovine cardiac myofibril ATPase assay (PK/LDH-coupled)
Format: biochemical
Conditions: Ca2+ activating to 75% of maximal rate; for CDMF75 IC15: concentration giving 15% inhibition; for IC50: read-out: CDMF75 IC50
Method in brief: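 Inhibition of steady-state ATPase read at 340 nm through a PK/LDH-coupled NADH system (0.5 mM NADH, 1.5 mM PEP). Detergent-skinned bovine cardiac myofibrils, 1 mg/mL, were tested at pH 6.8 in PIPES/MgCl2 with 50 μM ATP and calcium adjusted to give pCa50 or pCa75 activation.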

Sequence of bovine cardiac myofibrils (full-length cardiac myosin ATPase in the native sarcomere) (Q9BE39 whole entry): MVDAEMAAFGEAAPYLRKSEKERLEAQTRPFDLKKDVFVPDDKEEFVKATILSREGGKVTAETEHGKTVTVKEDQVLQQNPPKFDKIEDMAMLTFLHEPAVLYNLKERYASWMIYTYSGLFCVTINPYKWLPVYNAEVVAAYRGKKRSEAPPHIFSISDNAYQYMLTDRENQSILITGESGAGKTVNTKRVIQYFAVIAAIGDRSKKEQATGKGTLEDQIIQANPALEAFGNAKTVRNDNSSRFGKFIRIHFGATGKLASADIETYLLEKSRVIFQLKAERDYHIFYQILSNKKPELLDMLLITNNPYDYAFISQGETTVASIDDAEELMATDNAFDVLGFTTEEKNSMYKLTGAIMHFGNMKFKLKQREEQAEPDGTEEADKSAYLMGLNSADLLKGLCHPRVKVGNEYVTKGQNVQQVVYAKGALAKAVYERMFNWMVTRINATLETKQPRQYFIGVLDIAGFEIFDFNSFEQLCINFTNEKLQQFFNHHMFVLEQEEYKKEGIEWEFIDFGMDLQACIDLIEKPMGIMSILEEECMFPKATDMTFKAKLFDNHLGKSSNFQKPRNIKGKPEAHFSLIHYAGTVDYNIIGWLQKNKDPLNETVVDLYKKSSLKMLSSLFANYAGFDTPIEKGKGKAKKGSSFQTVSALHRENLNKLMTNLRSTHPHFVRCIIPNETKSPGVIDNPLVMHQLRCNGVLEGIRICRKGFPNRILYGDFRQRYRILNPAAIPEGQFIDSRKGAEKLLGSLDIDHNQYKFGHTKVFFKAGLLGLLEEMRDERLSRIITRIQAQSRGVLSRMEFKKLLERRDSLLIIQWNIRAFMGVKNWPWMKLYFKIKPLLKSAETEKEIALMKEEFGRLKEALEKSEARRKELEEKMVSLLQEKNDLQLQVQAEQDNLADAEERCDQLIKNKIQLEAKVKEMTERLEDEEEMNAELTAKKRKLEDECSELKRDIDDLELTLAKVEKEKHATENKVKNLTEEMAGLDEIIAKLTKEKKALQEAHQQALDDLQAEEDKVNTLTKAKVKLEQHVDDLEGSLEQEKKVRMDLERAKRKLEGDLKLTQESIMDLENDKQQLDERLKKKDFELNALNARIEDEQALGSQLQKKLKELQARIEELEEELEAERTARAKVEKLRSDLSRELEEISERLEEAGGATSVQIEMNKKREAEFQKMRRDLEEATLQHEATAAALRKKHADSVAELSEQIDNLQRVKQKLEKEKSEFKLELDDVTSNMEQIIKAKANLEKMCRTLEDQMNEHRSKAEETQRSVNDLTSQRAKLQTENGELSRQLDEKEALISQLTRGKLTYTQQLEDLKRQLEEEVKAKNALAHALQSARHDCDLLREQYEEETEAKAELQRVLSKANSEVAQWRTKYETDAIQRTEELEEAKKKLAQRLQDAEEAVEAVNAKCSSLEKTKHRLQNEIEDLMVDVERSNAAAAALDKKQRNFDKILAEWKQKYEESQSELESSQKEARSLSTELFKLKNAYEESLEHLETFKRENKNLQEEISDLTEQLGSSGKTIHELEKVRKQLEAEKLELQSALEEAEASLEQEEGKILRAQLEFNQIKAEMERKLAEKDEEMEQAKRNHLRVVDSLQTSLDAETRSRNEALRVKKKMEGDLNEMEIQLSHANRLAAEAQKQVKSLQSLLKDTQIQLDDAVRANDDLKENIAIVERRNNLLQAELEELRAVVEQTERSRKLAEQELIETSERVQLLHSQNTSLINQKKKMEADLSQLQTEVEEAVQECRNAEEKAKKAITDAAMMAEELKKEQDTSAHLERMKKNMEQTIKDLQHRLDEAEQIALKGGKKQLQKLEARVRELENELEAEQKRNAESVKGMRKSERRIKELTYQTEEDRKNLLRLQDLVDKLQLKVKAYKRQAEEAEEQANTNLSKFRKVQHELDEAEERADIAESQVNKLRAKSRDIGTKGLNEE
Sequence of bovine cardiac myofibrils (full-length cardiac myosin ATPase in the native sarcomere) (P85100 whole entry partner): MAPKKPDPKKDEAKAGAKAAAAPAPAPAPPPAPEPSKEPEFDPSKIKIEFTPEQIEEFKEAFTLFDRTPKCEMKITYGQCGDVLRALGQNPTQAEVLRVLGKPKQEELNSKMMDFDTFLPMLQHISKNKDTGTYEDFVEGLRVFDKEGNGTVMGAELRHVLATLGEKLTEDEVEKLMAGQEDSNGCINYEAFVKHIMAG
Sequence of bovine cardiac myofibrils (full-length cardiac myosin ATPase in the native sarcomere) (Q3SZE5 whole entry partner): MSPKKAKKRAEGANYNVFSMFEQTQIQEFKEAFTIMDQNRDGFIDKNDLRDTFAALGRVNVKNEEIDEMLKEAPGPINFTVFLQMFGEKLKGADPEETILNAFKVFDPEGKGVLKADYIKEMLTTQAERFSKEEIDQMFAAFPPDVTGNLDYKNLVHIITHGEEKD

Row | CDMF75 IC15 [µM] | IC50 [µM] | SMILES
1 | 0.8 | 3.1 | CCc1nc(-c2ccc3c(c2)CC[C@H]3NC(=O)c2cnn(CCOC)c2)no1 [Compound 472, (R)-N-(5-(5-ethyl-1,2,4-oxadiazol-3-yl)-2,3-dihydro-1H-inden-1-yl)-1-(2-methoxyethyl)-1H-pyrazole-4-carboxamide]
2 | 15.6 | > 39.2 | O=C1C[C@@H](C(=O)N[C@@H]2CCc3cc(-c4noc(C5CC5)n4)ccc32)N1 [Compound 316, (S)-N-((R)-5-(5-cyclopropyl-1,2,4-oxadiazol-3-yl)-2,3-dihydro-1H-inden-1-yl)-4-oxoazetidine-2-carboxamide]
3 | 2.3 | 10.1 | Cc1csc(C(=O)NC2CCc3cc(-c4noc(C)n4)ccc32)n1 (centres unmarked) [Compound 63, 4-methyl-N-(5-(5-methyl-1,2,4-oxadiazol-3-yl)-2,3-dihydro-1H-inden-1-yl)thiazole-2-carboxamide]
4 | 1.5 | 5.2 | O=C(NC1CCc2cc(-c3noc(C(F)F)n3)ccc21)c1cn[nH]c1 (centres unmarked) [Compound 50, N-(5-(5-(difluoromethyl)-1,2,4-oxadiazol-3-yl)-2,3-dihydro-1H-inden-1-yl)-1H-pyrazole-4-carboxamide]
5 | 0.3 | 0.9 | CCc1nc(-c2ccc3c(c2)CC[C@H]3NC(=O)OCC(C)C)no1 [Compound 322, isobutyl (R)-(5-(5-ethyl-1,2,4-oxadiazol-3-yl)-2,3-dihydro-1H-inden-1-yl)carbamate]
6 | 0.8 | 3 | Cc1nc(-c2ccc3c(c2)CCC3NC(=O)c2ccnn2C)no1 (centres unmarked) [Compound 65, 1-methyl-N-(5-(5-methyl-1,2,4-oxadiazol-3-yl)-2,3-dihydro-1H-inden-1-yl)-1H-pyrazole-5-carboxamide]
7 | 0.7 | 2.8 | [2H]C([2H])([2H])c1nc(-c2ccc3c(c2)CC[C@H]3NC(=O)OC)no1 [Compound 308, methyl (R)-(5-(5-(methyl-d3)-1,2,4-oxadiazol-3-yl)-2,3-dihydro-1H-inden-1-yl)carbamate]
8 | 1.5 | 5.7 | Cn1cc(C(=O)N[C@@H]2CCc3cc(-c4nc(C5CC5)no4)ccc32)cn1 [Compound 258, (R)-N-(5-(3-cyclopropyl-1,2,4-oxadiazol-5-yl)-2,3-dihydro-1H-inden-1-yl)-1-methyl-1H-pyrazole-4-carboxamide]
9 | 0.7 | 1.9 | [2H]C([2H])([2H])c1nc(-c2ccc3c(c2)OC[C@H]3NC(=O)c2ccnn2C)no1 [Compound 262, (S)-1-methyl-N-(6-(5-(methyl-d3)-1,2,4-oxadiazol-3-yl)-2,3-dihydrobenzofuran-3-yl)-1H-pyrazole-5-carboxamide]
10 | 8.0 | > 39.2 | [2H]C([2H])([2H])c1noc(-c2ccc3c(c2)OC[C@H]3NC(=O)c2nnn(C)n2)n1 [Compound 342, (S)-2-methyl-N-(6-(3-(methyl-d3)-1,2,4-oxadiazol-5-yl)-2,3-dihydrobenzofuran-3-yl)-2H-tetrazole-5-carboxamide]
11 | 1.0 | 3.8 | Cc1nc(C)c(C(=O)NC2COc3cc(-c4noc(C(F)F)n4)ccc32)o1 (centres unmarked) [Compound 192, N-(6-(5-(difluoromethyl)-1,2,4-oxadiazol-3-yl)-2,3-dihydrobenzofuran-3-yl)-2,4-dimethyloxazole-5-carboxamide]
12 | 8.2 | > 39.2 | Cc1nc(-c2ccc3c(c2)CC[C@H]3NC(=O)c2nncn2C)no1 [Compound 164, (R)-4-methyl-N-(5-(5-methyl-1,2,4-oxadiazol-3-yl)-2,3-dihydro-1H-inden-1-yl)-4H-1,2,4-triazole-3-carboxamide]
13 | 0.5 | 2.1 | CCc1nc(-c2ccc3c(c2)CC[C@H]3NC(=O)c2ncc(C)s2)no1 [Compound 640, (R)-N-(5-(5-ethyl-1,2,4-oxadiazol-3-yl)-2,3-dihydro-1H-inden-1-yl)-5-methylthiazole-2-carboxamide]
14 | 5.2 | 26.6 | O=C(NC1CCc2cc(-c3noc(C(F)F)n3)cnc21)c1ccccc1 (centres unmarked) [Compound 94, N-(3-(5-(difluoromethyl)-1,2,4-oxadiazol-3-yl)-6,7-dihydro-5H-cyclopenta[b]pyridin-7-yl)benzamide]
15 | 1.7 | 5.8 | COCc1nc(-c2ccc3c(c2)CC[C@H]3NC(=O)c2oc(C)nc2C)no1 [Compound 180, (R)-N-(5-(5-(methoxymethyl)-1,2,4-oxadiazol-3-yl)-2,3-dihydro-1H-inden-1-yl)-2,4-dimethyloxazole-5-carboxamide]
16 | 3.4 | 16.6 | CCc1nc(-c2ccc3c(c2)OC[C@H]3NC(=O)N2CC[C@H](F)C2)no1 [Compound 742, (S)-N-((S)-6-(5-ethyl-1,2,4-oxadiazol-3-yl)-2,3-dihydrobenzofuran-3-yl)-3-fluoropyrrolidine-1-carboxamide]

Row | CDMF75 IC15 [µM] | IC50 [µM] | SMILES
17 | 0.8 | 2.6 | CCc1noc(-c2ccc3c(c2)CC[C@H]3NC(=O)c2cnn(C)c2C)n1 [Compound 255, (R)-N-(5-(3-ethyl-1,2,4-oxadiazol-5-yl)-2,3-dihydro-1H-inden-1-yl)-1,5-dimethyl-1H-pyrazole-4-carboxamide]
18 | 0.6 | 2.2 | Cc1nn(C)cc1C(=O)N[C@@H]1CCc2cc(-c3noc(C(C)C)n3)ccc21 [Compound 152, (R)-N-(5-(5-isopropyl-1,2,4-oxadiazol-3-yl)-2,3-dihydro-1H-inden-1-yl)-1,3-dimethyl-1H-pyrazole-4-carboxamide]
19 | 22.4 | > 39.2 | CC(C)OC(=O)N[C@@H]1CCc2cc(-c3noc(C(F)F)n3)ccc21 [Compound 279, isopropyl (R)-(5-(5-(difluoromethyl)-1,2,4-oxadiazol-3-yl)-2,3-dihydro-1H-inden-1-yl)carbamate]
20 | 1.1 | 4.9 | O=C(N[C@@H]1CCc2cc(-c3noc(C(F)F)n3)ccc21)c1cnn(CCO)c1 [Compound 528, (R)-N-(5-(5-(difluoromethyl)-1,2,4-oxadiazol-3-yl)-2,3-dihydro-1H-inden-1-yl)-1-(2-hydroxyethyl)-1H-pyrazole-4-carboxamide]
21 | 1.1 | 4.8 | O=C(N[C@@H]1CCc2cc(-c3noc(C4CC4)n3)ccc21)C(F)F [Compound 439, (R)-N-(5-(5-cyclopropyl-1,2,4-oxadiazol-3-yl)-2,3-dihydro-1H-inden-1-yl)-2,2-difluoroacetamide]
22 | 38.3 | > 39.2 | Cn1nccc1C(=O)N[C@H]1COc2cc(-c3noc(C4CC4)n3)ccc21 [Compound 220, (R)-N-(6-(5-cyclopropyl-1,2,4-oxadiazol-3-yl)-2,3-dihydrobenzofuran-3-yl)-1-methyl-1H-pyrazole-5-carboxamide]
23 | 1.2 | 4.2 | Cc1cc(-c2ccc3c(c2)CC[C@H]3NC(=O)c2cnc(C)o2)no1 [Compound 416, (R)-2-methyl-N-(5-(5-methylisoxazol-3-yl)-2,3-dihydro-1H-inden-1-yl)oxazole-5-carboxamide]
24 | 4.6 | 21.3 | CCc1nc(-c2ccc3c(c2)OC[C@H]3NC(=O)N(C)CCO)no1 [Compound 746, (S)-3-(6-(5-ethyl-1,2,4-oxadiazol-3-yl)-2,3-dihydrobenzofuran-3-yl)-1-(2-hydroxyethyl)-1-methylurea]
25 | 8.6 | > 39.2 | Cn1nccc1C(=O)N[C@@H]1CCc2cc(-c3ncccn3)ccc21 [Compound 366, (R)-1-methyl-N-(5-(pyrimidin-2-yl)-2,3-dihydro-1H-inden-1-yl)-1H-pyrazole-5-carboxamide]
26 | 1.9 | 8.7 | [2H]C([2H])([2H])c1nc(-c2ccc3c(c2)CC[C@H]3NC(=O)c2cnn(CCO)c2)no1 [Compound 519, (R)-1-(2-hydroxyethyl)-N-(5-(5-(methyl-d3)-1,2,4-oxadiazol-3-yl)-2,3-dihydro-1H-inden-1-yl)-1H-pyrazole-4-carboxamide]
27 | 5.4 | 24.2 | CCc1nc(-c2ccc3c(c2)OC[C@H]3NC(=O)N2CC[C@H](O)C2)no1 [Compound 739, (S)-N-((S)-6-(5-ethyl-1,2,4-oxadiazol-3-yl)-2,3-dihydrobenzofuran-3-yl)-3-hydroxypyrrolidine-1-carboxamide]
28 | 0.8 | 2.7 | Cn1cc(C(=O)N[C@@H]2CCc3cc(-c4noc(C5CC5)n4)ccc32)cn1 [Compound 185, (R)-N-(5-(5-cyclopropyl-1,2,4-oxadiazol-3-yl)-2,3-dihydro-1H-inden-1-yl)-1-methyl-1H-pyrazole-4-carboxamide]
29 | 0.3 | 1 | CCc1nc(-c2ccc3c(c2)CC[C@H]3NC(=O)c2ccncc2)no1 [Compound 628, (R)-N-(5-(5-ethyl-1,2,4-oxadiazol-3-yl)-2,3-dihydro-1H-inden-1-yl)isonicotinamide]
30 | 0.8 | 2.9 | [2H]C([2H])([2H])c1noc(-c2ccc3c(c2)CC[C@H]3NC(=O)c2oncc2C)n1 [Compound 275, (R)-4-methyl-N-(5-(3-(methyl-d3)-1,2,4-oxadiazol-5-yl)-2,3-dihydro-1H-inden-1-yl)isoxazole-5-carboxamide]
31 | 3.2 | 13.7 | COCc1nc(-c2ccc3c(c2)CC[C@H]3NC(=O)c2cc(CO)ccn2)no1 [Compound 672, (R)-4-(hydroxymethyl)-N-(5-(5-(methoxymethyl)-1,2,4-oxadiazol-3-yl)-2,3-dihydro-1H-inden-1-yl)picolinamide]
